Results from BindingDB's records for doi:10.3109/14756366.2010.487485 (Huazhong University of Science and Technology, 2011).

Key:
[1] = target: Matrix metalloproteinase-9 (Homo sapiens, UniProt P14780); assay: MMP-9 Assay; conditions: pH 7.5; 37 °C
Procedure: The MMP-9 assay was performed in 50 mM Tris-HCl buffer (pH 7.5, 10mM CaCl2, 150mM NaCl, 0.05% Brij-35). […] After incubation for 25 min at 37°C, the reaction was stopped with 25 μL of 1% TFA. An aliquot of 25 μL internal standard solution was then added and the solution mixture was analysed by HPLC. […] After incubation for 30 min at 37°C, 2 μL of 3 nM MMP-9 substrate was added.

[2] = target: Disintegrin and metalloproteinase domain-containing protein 17 (Homo sapiens, UniProt P78536); assay: TACE Assay; conditions: pH 9; 37 °C
Procedure: Then, 15ng TACE was added to buffer solution containing 140μMTACE peptide substrate at a final volume of 50 μL. After incubation for 15 min at 37°C, the reaction was stopped with 25 μL of 1% TFA. An aliquot of 25μL of internal standard solution was then added and the solution mixture was analysed by HPLC.

Disintegrin and metalloproteinase domain-containing protein 17, sequence (P78536 whole entry, the tested form may be a part): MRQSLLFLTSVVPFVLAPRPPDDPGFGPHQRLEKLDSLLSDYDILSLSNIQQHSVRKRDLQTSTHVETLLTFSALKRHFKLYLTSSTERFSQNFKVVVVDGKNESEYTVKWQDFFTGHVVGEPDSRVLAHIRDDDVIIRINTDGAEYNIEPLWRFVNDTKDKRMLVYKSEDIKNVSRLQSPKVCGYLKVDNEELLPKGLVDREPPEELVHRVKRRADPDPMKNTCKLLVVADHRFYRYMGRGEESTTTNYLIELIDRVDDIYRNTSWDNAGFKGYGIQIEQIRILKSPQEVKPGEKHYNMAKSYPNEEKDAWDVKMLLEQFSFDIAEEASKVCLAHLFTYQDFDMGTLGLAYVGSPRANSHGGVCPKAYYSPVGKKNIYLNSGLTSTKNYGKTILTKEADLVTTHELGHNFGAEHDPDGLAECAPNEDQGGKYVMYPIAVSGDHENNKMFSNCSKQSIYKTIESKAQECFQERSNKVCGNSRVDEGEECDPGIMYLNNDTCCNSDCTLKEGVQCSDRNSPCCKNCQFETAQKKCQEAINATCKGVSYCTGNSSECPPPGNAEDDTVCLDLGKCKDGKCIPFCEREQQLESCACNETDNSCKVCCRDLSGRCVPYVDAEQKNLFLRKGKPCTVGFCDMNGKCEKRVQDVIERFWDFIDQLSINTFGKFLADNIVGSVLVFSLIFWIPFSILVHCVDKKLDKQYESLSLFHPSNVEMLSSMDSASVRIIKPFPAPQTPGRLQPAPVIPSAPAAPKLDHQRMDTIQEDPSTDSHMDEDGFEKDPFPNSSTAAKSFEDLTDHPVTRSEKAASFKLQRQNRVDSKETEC
Matrix metalloproteinase-9, sequence (P14780 whole entry): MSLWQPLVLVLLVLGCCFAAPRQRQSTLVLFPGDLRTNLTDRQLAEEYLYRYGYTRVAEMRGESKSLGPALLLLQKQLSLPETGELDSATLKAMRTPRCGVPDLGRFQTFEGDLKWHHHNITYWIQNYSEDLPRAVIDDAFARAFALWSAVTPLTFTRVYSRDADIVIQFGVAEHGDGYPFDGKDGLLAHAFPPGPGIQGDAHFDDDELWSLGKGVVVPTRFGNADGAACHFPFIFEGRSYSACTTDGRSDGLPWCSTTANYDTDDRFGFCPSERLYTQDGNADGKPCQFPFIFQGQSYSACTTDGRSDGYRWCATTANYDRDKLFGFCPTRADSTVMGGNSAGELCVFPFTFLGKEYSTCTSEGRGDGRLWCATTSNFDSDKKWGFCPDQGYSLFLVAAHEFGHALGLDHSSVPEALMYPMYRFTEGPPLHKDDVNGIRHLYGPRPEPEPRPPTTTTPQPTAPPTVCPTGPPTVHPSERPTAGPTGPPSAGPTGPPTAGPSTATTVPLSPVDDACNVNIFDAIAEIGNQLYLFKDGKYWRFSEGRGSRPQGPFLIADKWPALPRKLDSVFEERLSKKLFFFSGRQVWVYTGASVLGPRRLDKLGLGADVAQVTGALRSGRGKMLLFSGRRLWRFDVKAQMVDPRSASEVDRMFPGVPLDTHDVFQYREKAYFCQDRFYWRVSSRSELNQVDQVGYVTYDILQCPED

O=C(Cc1cc2ccccc2oc1=O)NO [Inhibitor A]
IC50 [1]: 537 nM | IC50 [2]: 175 nM

CNC(=O)[C@H](Cc1c[nH]c2ccccc12)NC(=O)[C@@H](CC(=O)NO)CC(C)C [GM6001]
IC50 [2]: 317 nM
